Among the data in patent publication US20240352021A1 (DANA-FARBER CANCER INSTITUTE, INC., priority 2021, published 2024) are IC50 and GI50 values, retold here.

The target of one experiment is EGFR L858R (Homo sapiens, UniProt P00533, L858R). Briefly: EGFR biochemical assay (headed HTRF-based; method describes Z'-LYTE), L858R. As to conditions: Table 4. The procedure: (§1) To measure the IC50 values of compounds herein against EGFR, a Z′-LYTE assay (ThermoFisher) was used. Briefly, 2.5 μL of different concentrations of the compounds in 4% DMSO were added to 5 μL kinase/peptide mixture in each well of a 384-well plate (Corning Cat. #3676). 2.5 μL of 4× ATP solution (4× ATP, 50 mM HEPES, pH 7.5, 0.01% BRIJ-35, 10 mM MgCl2, 1 mM EGTA) were added to each well. The plate was shaken for 30 seconds, and then incubated at room temperature for 60 minutes. 5 μL of a 1:100000 dilution of Development Reagent A was added to each well. The plate was then incubated for 60 mins at room temperature. 5 μL of the stop reagent was then added. The plate was subsequently read on a fluorescence plate reader, and the emissions ratio was calculated to determine the ratio of Ser/Thr 07 phosphorylated by the reaction. Emissions Ratio═Coumarin Emission (443 nm)/Flourescein Emission (520 nm).
(§2) HTRF-based EGFR assay data are provided below in Table 4.

The next experiment deals with EGFR L858R/T790M (Homo sapiens, UniProt P00533, L858R/T790M). Briefly: EGFR biochemical assay (headed HTRF-based; method describes Z'-LYTE), L858R/T790M. As to conditions: Table 4. How it is done:
as §1, §2

The target in experiment [1] is EGFR mutant L858R Ba/F3 cells (Homo sapiens, UniProt P00533, L858R, cells depend on it). Briefly: Ba/F3 cell proliferation (Cell Titer Glo), EGFR L858R. Format: cell-based, murine. To be noted: 72 hours, Table 6, read-out: L858R BaF3. The source says: (§3) The EGFR mutant L858R Ba/F3 cells have been previously described (Zhou, W., et al. Nature 462, 2009, 1070-1074). The EGFR C797S and C775S mutations were introduced via site directed mutagenesis using the Quick Change Site-Directed Mutagenesis kit into a vector containing EGFR L858R mutation (Stratagene; La Jolla, CA) according to the manufacturer's instructions. All constructs were confirmed by DNA sequencing. The constructs were then shuttled into the retroviral vector JP1540 by either using the Cre-recombination system (Agilent Technologies, Santa Clara, CA) or the In-fusion HD Cloning kit (Takara Bio USA, Inc.; Mountain view, CA). Ba/F3 cells were then infected with retrovirus per standard protocols, as described previously (Zhou, et al, Nature 2009). Stable clones were obtained by selection in puromycin (2 μg/ml). All BaF/3 mutant cells were maintained in RPMI 1640 (Cellgro; Mediatech Inc., Herndon, CA) supplemented with 10% FBS, 100 units/mL penicillin, 100 units/mL streptomycin.
(§4) Growth and inhibition of growth was assessed by the Cell Titer Glo assay (Promega, Madison, WI) and was performed according to the manufacturer's instructions. The Cell Titer Glo assay is a luminescence-based method used to determine the number of viable cells based on quantitation of the ATP present, which is directly proportional to the amount of metabolically active cells present. Ba/F3 cells of different EGFR genotypes were exposed to compounds for 72 hours and the number of cells used per experiment was determined empirically as has been previously established (Zhou, et al., Nature 2009). All experimental points were set up in triplicates in 384-well plates. […] The curves were fitted using a non-linear regression model with a sigmoidal dose response.
(§5) Ba/F3 cells assay data are provided below in Table 5 and Table 6. For inhibitory activity against EGFR mutants, the following designations are used: <0.1 μM=A, 0.1 μM˜0.5 μM=B, 0.5 μM˜2.5 μM=C, ≥2.5 μM=D

Experiment [2] addresses EGFR L858R/C797S Ba/F3 cells (Homo sapiens, UniProt P00533, C797S/L858R, cells depend on it). Put plainly: Ba/F3 cell proliferation (Cell Titer Glo), EGFR L858R/C797S. Format: cell-based, murine. To be noted: 72 hours, Table 6.
Description: as §3, §4, §5

Chain of EGFR mutant L858R Ba/F3 cells (P00533 whole entry L858R, the tested form may be a part): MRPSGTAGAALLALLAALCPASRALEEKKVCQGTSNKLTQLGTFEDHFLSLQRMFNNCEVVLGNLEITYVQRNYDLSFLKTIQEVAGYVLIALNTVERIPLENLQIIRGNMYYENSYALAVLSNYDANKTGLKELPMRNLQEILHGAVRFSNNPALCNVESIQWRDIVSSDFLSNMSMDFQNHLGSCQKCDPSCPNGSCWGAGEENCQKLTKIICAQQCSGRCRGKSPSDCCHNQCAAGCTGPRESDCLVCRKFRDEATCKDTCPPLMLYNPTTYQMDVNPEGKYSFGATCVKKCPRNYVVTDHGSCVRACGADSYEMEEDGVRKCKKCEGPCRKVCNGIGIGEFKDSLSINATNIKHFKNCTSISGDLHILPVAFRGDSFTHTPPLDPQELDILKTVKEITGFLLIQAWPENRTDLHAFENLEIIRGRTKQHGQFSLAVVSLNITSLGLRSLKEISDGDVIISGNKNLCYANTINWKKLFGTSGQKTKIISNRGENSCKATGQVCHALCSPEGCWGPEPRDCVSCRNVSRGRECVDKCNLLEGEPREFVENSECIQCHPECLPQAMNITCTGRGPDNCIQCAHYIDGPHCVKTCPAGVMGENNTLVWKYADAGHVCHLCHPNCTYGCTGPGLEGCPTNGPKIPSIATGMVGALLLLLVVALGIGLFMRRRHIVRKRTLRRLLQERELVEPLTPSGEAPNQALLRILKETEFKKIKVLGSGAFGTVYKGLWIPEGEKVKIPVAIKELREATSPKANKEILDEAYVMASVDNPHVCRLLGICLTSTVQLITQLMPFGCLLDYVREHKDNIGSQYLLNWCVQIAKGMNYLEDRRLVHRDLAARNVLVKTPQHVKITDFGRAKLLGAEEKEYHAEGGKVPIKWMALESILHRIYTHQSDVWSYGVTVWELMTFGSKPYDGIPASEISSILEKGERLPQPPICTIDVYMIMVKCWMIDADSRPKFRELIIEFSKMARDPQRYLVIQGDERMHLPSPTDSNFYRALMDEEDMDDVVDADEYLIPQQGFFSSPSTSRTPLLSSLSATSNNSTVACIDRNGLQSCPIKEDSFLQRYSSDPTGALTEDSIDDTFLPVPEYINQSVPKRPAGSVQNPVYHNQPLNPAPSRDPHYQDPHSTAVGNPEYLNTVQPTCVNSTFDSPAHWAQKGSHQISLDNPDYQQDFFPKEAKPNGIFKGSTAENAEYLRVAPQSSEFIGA
Chain of EGFR L858R/T790M (P00533 25-1210 T790M/L858R): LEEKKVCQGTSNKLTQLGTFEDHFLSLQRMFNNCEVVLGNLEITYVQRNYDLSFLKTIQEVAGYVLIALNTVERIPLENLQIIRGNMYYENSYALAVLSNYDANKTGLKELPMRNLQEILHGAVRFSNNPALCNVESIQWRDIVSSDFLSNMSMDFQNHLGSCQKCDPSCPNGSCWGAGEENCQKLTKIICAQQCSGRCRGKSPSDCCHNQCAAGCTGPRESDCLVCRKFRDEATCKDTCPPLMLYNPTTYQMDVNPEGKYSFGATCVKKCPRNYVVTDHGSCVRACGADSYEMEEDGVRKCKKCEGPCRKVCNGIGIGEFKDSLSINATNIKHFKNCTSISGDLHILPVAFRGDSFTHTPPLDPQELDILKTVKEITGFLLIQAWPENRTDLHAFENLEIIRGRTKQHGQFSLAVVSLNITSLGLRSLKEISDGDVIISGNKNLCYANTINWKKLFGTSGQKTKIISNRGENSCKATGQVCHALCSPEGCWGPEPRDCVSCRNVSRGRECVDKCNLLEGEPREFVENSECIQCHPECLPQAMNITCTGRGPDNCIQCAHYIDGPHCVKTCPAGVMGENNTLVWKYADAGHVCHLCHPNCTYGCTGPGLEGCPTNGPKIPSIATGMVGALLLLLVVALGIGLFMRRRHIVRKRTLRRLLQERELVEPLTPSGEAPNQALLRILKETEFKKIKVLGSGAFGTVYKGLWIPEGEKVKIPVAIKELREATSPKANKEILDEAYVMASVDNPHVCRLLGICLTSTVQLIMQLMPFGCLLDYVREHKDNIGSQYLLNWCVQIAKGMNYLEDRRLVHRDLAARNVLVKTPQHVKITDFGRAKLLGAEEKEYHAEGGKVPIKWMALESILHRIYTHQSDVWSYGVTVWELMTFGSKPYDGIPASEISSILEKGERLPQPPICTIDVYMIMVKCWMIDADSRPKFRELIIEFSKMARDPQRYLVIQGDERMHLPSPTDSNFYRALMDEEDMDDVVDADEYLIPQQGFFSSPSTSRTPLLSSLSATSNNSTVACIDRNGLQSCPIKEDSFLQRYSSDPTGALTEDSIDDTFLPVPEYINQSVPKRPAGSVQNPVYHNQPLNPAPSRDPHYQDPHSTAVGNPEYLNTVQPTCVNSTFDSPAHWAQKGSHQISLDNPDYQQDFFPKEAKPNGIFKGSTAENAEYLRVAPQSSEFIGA
Chain of EGFR L858R/C797S Ba/F3 cells (P00533 whole entry C797S/L858R): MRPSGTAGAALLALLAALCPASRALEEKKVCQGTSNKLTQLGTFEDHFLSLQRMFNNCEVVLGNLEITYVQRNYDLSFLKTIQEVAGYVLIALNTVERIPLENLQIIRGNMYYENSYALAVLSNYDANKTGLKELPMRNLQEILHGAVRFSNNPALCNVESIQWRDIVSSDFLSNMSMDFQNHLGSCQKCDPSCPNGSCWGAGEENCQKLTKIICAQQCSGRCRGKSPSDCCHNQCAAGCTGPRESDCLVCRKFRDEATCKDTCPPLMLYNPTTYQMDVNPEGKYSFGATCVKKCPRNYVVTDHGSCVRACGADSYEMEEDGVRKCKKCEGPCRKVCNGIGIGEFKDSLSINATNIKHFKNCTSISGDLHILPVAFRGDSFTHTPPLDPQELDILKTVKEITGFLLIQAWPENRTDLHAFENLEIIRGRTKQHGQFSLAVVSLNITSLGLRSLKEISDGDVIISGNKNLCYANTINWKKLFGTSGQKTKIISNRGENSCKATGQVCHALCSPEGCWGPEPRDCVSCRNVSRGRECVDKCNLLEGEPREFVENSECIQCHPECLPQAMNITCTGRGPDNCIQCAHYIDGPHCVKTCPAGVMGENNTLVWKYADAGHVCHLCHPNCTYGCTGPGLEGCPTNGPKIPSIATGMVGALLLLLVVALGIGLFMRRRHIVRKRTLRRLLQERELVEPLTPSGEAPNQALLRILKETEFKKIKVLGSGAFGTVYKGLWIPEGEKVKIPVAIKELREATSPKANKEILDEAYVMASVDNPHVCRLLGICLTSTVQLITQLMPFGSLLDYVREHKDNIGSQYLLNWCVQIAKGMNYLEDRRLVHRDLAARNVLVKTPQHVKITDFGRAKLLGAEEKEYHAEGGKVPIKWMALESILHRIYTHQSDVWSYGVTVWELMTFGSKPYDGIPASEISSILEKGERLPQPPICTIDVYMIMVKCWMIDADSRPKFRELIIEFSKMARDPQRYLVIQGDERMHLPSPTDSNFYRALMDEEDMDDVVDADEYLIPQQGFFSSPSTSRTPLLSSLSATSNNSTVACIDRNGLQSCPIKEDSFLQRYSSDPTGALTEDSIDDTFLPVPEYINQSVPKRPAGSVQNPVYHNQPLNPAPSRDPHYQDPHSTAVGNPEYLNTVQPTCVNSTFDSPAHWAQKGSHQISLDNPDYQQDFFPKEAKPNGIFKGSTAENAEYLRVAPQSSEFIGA
Chain of EGFR L858R (P00533 25-1210 L858R): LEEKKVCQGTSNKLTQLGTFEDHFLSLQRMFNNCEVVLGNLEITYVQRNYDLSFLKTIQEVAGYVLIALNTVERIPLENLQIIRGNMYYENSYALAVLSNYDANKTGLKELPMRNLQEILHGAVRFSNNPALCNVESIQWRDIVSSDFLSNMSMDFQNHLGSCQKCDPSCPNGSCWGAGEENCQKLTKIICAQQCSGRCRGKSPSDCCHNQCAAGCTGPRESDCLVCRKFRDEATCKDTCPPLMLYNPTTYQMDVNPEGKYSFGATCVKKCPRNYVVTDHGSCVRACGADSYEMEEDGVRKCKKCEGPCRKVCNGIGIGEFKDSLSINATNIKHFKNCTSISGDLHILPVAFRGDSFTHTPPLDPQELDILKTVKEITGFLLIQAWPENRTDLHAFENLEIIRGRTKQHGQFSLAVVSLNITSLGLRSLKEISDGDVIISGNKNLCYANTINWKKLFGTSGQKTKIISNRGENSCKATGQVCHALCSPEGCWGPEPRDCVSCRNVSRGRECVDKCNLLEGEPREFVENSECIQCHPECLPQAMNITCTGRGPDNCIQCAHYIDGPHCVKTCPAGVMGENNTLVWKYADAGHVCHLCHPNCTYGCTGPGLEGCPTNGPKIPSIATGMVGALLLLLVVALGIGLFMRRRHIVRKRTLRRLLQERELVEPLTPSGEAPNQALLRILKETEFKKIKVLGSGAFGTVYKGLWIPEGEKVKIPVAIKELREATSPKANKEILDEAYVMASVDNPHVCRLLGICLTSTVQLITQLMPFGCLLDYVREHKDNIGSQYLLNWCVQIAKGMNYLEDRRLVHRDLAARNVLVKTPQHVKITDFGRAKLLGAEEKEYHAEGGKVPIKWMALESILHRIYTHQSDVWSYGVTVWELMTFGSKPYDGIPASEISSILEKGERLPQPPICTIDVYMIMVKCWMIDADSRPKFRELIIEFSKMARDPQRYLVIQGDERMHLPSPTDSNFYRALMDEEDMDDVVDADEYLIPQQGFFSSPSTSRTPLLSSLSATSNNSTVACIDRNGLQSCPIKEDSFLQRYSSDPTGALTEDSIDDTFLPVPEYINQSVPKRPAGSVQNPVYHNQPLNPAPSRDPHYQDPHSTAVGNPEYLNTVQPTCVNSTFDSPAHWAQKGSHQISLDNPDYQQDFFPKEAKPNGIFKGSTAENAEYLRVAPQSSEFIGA

Consider `C=CC(=O)N1CC[C@H](N2Cc3cnc(Nc4ccc(N5CCN(C)CC5)cc4)nc3N(C)C2=O)[C@H](N)C1` (relative stereo) [Compound 148, rel-(3R,4S)—S-(3-amino-1-prop-2-enoyl-4-piperidyl)-1-methyl-7-[4-(4-methylpiperazin-1-yl)anilino]-4H-pyrimido[4,5-d]pyrimidin-2-one], for which the IC50 against EGFR L858R and on EGFR L858R/T790M was above 1000 nM in each case. The GI50 in experiment [1] and in experiment [2] was at least 2500 nM each time.

For the molecule `C=CC(=O)N1CC[C@@H](N2Cc3cnc(Nc4cnn(CCO)c4)nc3N(C)C2=O)c2cccc(OC)c21` (single isomer, unassigned) [Compound 117], the IC50 at EGFR L858R and against EGFR L858R/T790M was above 100 nM throughout. Moreover, the GI50 in experiment [1] and in experiment [2] was at least 2500 nM each time.

As to `C=C(F)C(=O)N1CC[C@@H](N2Cc3cnc(Nc4cnn(CCO)c4)nc3N(C)C2=O)c2cccc(OC)c21` (single isomer, unassigned) [Compound 119], the IC50 against EGFR L858R and at EGFR L858R/T790M was above 100 nM each time. In addition, the GI50 in experiment [1] and in experiment [2] was at least 2500 nM throughout.

For `C=C(F)C(=O)N1CC[C@H](N2Cc3cnc(Nc4cnn(CCO)c4)nc3N(C)C2=O)c2cccc(OC)c21` (single isomer, unassigned) [Compound 120], the IC50 against EGFR L858R and against EGFR L858R/T790M was above 100 nM in each case. For the same molecule, the GI50 in experiment [1] and in experiment [2] was at least 2500 nM throughout.

For the molecule `C=CC(=O)N1CCC(N2Cc3cnc(Nc4ccc(N5CCN(C)CC5)cc4)nc3N(C)C2=O)c2cccc(OC)c21` (single isomer, unassigned) [Compound 123], the half-inhibitory concentration (IC50) was 62.9 nM on EGFR L858R and above 100 nM on EGFR L858R/T790M. In addition, the GI50 in experiment [1] and in experiment [2] was at least 2500 nM in each case.

In the case of `C=CC(=O)N1CCC(N2Cc3cnc(Nc4ccc(N5CCN(C)CC5)cc4)nc3N(C)C2=O)c2cccc(OC)c21` (single isomer, unassigned) [Compound 124], the IC50 against EGFR L858R and against EGFR L858R/T790M was above 100 nM throughout. Moreover, the GI50 in experiment [1] was at least 2500 nM.

On to `C=CC(=O)N1CC[C@@H](N2Cc3cnc(Nc4ccc(N5CCN(C)CC5)cc4)nc3N(C)C2=O)c2cccc(O)c21` (single isomer, unassigned) [Compound 155], for which the IC50 against EGFR L858R amounted to 12.3 nM; on EGFR L858R/T790M it was 85.7 nM. Besides, the figures for the GI50 in experiment [1] and in experiment [2] were below 100 nM and 100 to 500 nM, respectively.

Turning to `C=CC(=O)N1CCC(N2Cc3cnc(Nc4ccc(N5CCN(C)CC5)cc4)nc3N(C)C2=O)c2cccc(O)c21` (single isomer, unassigned) [Compound 156], the IC50 turned out to be 0.18 nM against EGFR L858R and 1.18 nM at EGFR L858R/T790M. The GI50 in experiment [1] and in experiment [2] was below 100 nM in each case.

In the case of `C=CC(=O)N1CCC(N2Cc3cnc(Nc4ccc(N5CCN(C)CC5)cc4)nc3N(C)C2=O)[C@@H](N)C1` (stereo in doubt) [Compound 149, rel-(3S,4S)—S-(3-amino-1-prop-2-enoyl-4-piperidyl)-1-methyl-7-[4-(4-methylpiperazin-1-yl)anilino]-4H-pyrimido[4,5-d]pyrimidin-2-one], the IC50 on EGFR L858R and on EGFR L858R/T790M was above 1000 nM throughout. Further, the GI50 in experiment [1] and in experiment [2] was at least 2500 nM in each case.

As for `C=C(F)C(=O)N1CCC(N2Cc3cnc(Nc4cnn(CCO)c4)nc3-n3ccnc32)c2ccccc21` (stereo not shown) [001A], the IC50 on EGFR L858R and against EGFR L858R/T790M was above 100 nM throughout. For the same molecule, the GI50 in experiment [1] and in experiment [2] was at least 2500 nM each time.

Turning to `C=C(F)C(=O)N1CC[C@H](N2Cc3cnc(Nc4cnn(CCO)c4)nc3N(CC(F)F)C2=O)c2ccccc21` [Compound 110, 1-(2,2-difluoroethyl)-S-[(4S)-1-(2-fluoroprop-2-enoyl)-3,4-dihydro-2H-quinolin-4-yl]-7-[[1-(2-hydroxyethyl)pyrazol-4-yl]amino]-4H-pyrimido[4,5-d]pyrimidin-2-one], the GI50 in experiment [1] and in experiment [2] was below 100 nM each time.

Take `C=C(F)C(=O)N1CC[C@H](N2Cc3cnc(Nc4cnn(CCO)c4)nc3N(c3ccccn3)C2=O)c2ccccc21` [Compound 111]: the values for the GI50 in experiment [1] and in experiment [2] were 100 to 500 nM and 500 to 2500 nM, respectively.

Take `C=CC(=O)N1CCC(C)(N2Cc3cnc(Nc4cnn(CCO)c4)nc3N(C)C2=O)c2ccccc21` (stereo not drawn) [Compound 112, 7-[[1-(2-hydroxyethyl)pyrazol-4-yl]amino]-1-methyl-S-(4-methyl-1-prop-2-enoyl-2,3-dihydroquinolin-4-yl)-4H-pyrimido[4,5-d]pyrimidin-2-one]: the GI50 in experiment [1] and in experiment [2] was at least 2500 nM throughout.

Regarding `[2H]C1(N2Cc3cnc(Nc4cnn(CCO)c4)nc3N(C3CC3)C2=O)CCN(C(=O)C(=C)F)c2ccccc21` (stereo not drawn) [Compound 113, 1-cyclopropyl-S-[4-deuterio-1-(2-fluoroprop-2-enoyl)-2,3-dihydroquinolin-4-yl]-7-[[1-(2-hydroxyethyl)pyrazol-4-yl]amino]-4H-pyrimido[4,5-d]pyrimidin-2-one], the GI50 in experiment [1] was below 100 nM; in experiment [2] it was 100 to 500 nM.

On to `C=CC(=O)N1CC[C@H](N2Cc3cnc(Nc4cnn(CCO)c4)nc3N(C)C2=O)c2cccc(OC)c21` [Compound 118], for which the IC50 at EGFR L858R and against EGFR L858R/T790M was above 100 nM in each case. Besides, the GI50 in experiment [1] was 100 to 500 nM; in experiment [2], 500 to 2500 nM.

In the case of `C=CC(=O)N1CCC2(N3Cc4cnc(Nc5ccc(OCCN6CCCC6)cc5)nc4N(C)C3=O)CC2C1` (stereo not drawn) [Compound 121, 1-methyl-S-(3-prop-2-enoyl-S-azabicyclo[4.1.0]heptan-6-yl)-7-[4-(2-pyrrolidin-1-ylethoxy)anilino]-4H-pyrimido[4,5-d]pyrimidin-2-one], the IC50 on EGFR L858R and at EGFR L858R/T790M was above 100 nM in each case. Moreover, the GI50 in experiment [1] and in experiment [2] was at least 2500 nM each time.

Consider `C=CC(=O)N1CCC(n2c(=O)c3cnc(Nc4cnn(CCO)c4)nc3n(C)c2=O)c2ccccc21` (stereo not drawn) [Compound 122, 7-[[1-(2-hydroxyethyl)pyrazol-4-yl]amino]-1-methyl-S-(1-prop-2-enoyl-3,4-dihydro-2H-quinolin-4-yl)pyrimido[4,5-d]pyrimidine-2,4-dione], for which the IC50 on EGFR L858R and at EGFR L858R/T790M was above 100 nM each time. Moreover, the results for the GI50 in experiment [1] and in experiment [2] were 100 to 500 nM and 500 to 2500 nM, respectively.

With `C=CC(=O)N1CCC(C)(N2Cc3cnc(Nc4cnn(CCO)c4)nc3N(C)C2=O)CC1` [Compound 125, 7-[[1-(2-hydroxyethyl)pyrazol-4-yl]amino]-1-methyl-S-(4-methyl-1-prop-2-enoyl-4-piperidyl)-4H-pyrimido[4,5-d]pyrimidin-2-one], the IC50 against EGFR L858R and on EGFR L858R/T790M was above 100 nM throughout. Also, the GI50 in experiment [1] and in experiment [2] was at least 2500 nM each time.

Turning to `[2H]C1(N2Cc3cnc(Nc4cnn(CCO)c4)nc3N(C)C2=O)CCN(C(=O)C=C)c2c(OC)cccc21` (stereo not shown) [Compound 129, 3-(4-deuterio-8-methoxy-1-prop-2-enoyl-2,3-dihydroquinolin-4-yl)-7-[[1-(2-hydroxyethyl)pyrazol-4-yl]amino]-1-methyl-4H-pyrimido[4,5-d]pyrimidin-2-one], the values for the GI50 in experiment [1] and in experiment [2] were 500 to 2500 nM and at least 2500 nM, respectively.

For the molecule `C=CC(=O)N1CC[C@H](N2Cc3cnc(Nc4ccc5c(c4)CCN(C)C5)nc3N(CCO)C2=O)c2cccc(C)c21` [Compound 154, 1-(2-hydroxyethyl)-7-[(2-methyl-3,4-dihydro-1 H-isoquinolin-6-yl)amino]-S-[(4S)-8-methyl-1-prop-2-enoyl-3,4-dihydro-2H-quinolin-4-yl]-4H-pyrimido[4,5-d]pyrimidin-2-one], the GI50 in experiment [1] and in experiment [2] was below 100 nM throughout.
